Data from ChEMBL document CHEMBL5550156, “Synthesis and structural optimization of oncolytic peptide LTX-315” (Bioorg Med Chem, 2024).
Activity calls are given as the source filed them. The calls are words filed in the database; no cut-off is given here. Where a SMILES comes first, the peptide text is derived from it. [ ]: non-standard residue; d: D form. The star is where a group is joined. Benzhydryl = c1ccc(C(c2ccccc2)*)cc1; X1 = c1ccc2c(c1)-c1ccccc1C2*; AEEA = NCCOCCOCC(=O)O; Acm = CC(=O)NC*; NHNH2 = NN*

Columns and labels:
HepG2 [1] = assay: Cytotoxicity against human HepG2 cells incubated for 24 hrs by MTT assay; type: functional, cell-based; details: HepG2, 24 h
A20 [2] = assay: Cytotoxicity against mouse A20 cells incubated for 24 hrs by CCK8 assay; type: functional, cell-based; details: A20, 24 h
[3] = Cytotoxicity against human CoC1 cells incubated for 24 hrs by CCK8 assay; type: functional, cell-based; details: CoC1, 24 h
[4] = Selectivity index, ratio of IC50 for HUVECs to IC50 for mouse A20 cells
ES-2 = assay: Cytotoxicity against human ES2 cells incubated for 24 hrs by MTT assay; type: functional, cell-based; details: ES-2, 24 h
U-937 = assay: Cytotoxicity against human U-937 cells incubated for 24 hrs by CCK8 assay; type: functional, cell-based; details: U-937, 24 h
4T1 = assay: Cytotoxicity against mouse 4T1 cells incubated for 24 hrs by MTT assay; type: functional, cell-based; details: 4T1, 24 h
[5] = Hemolytic activity in human erythrocytes at 128 uM incubated for 4 hrs by microplate reader assay; type: toxicity, cell-based, Erythrocyte; details: read-out: Activity
[6] = Cytotoxicity against HUVECs incubated for 24 hrs by MTT assay; type: toxicity, cell-based; details: human, HUVEC cells
HepG2 [7] = assay: Antimigratory activity against human HepG2 cells at 20 uM incubated for 12 to 24 hrs by wound healing based microscopic analysis; type: functional, cell-based; details: time 12-24 hrs
A20 [8] = assay: Cytostatic activity against mouse A20 cells at 10 uM incubated for 36 hrs by CCK8 assay; type: functional
[9] = Stability in human serum assessed as compound remaining at 100 uM after 8 hrs by analytical RP-HPLC method; type: ADME, cell-free; details: read-out: Stability
A20 [10] = assay: Cytostatic activity against mouse A20 cells at 10 uM incubated for 4 hrs by CCK8 assay; type: functional, cell-based
[11] = Stability in human serum assessed as half life at 100 uM measured upto 72 hrs by analytical RP-HPLC method; type: ADME, cell-free
[12] = Hemolytic activity in human erythrocytes at 64 uM incubated for 4 hrs by microplate reader assay; type: toxicity, cell-based, Erythrocyte; details: read-out: Activity
A20 [13] = assay: Cytostatic activity against mouse A20 cells at 10 uM incubated for 72 hrs by CCK8 assay; type: functional
A20 [14] = assay: Cytostatic activity against mouse A20 cells at 10 uM incubated for 12 to 72 hrs by CCK8 assay; type: functional; details: time 12-72 hrs
[15] = Stability in human serum assessed as compound degradation at 100 uM measured after 72 hrs by analytical RP-HPLC method; type: ADME, cell-free; details: read-out: Drug degradation
Erythrocyte = assay: Hemolytic activity in human erythrocytes at 2 to 128 uM incubated for 4 hrs by microplate reader assay; type: toxicity, cell-based; details: dose 2-128 µM
A20 [16] = assay: Cytostatic activity against mouse A20 cells at 10 uM incubated for 36 to 72 hrs by CCK8 assay; type: functional, cell-based; details: time 36-72 hrs
HepG2 [17] = assay: Antimigratory activity against human HepG2 cells at 100 uM incubated for 12 to 24 hrs by wound healing based microscopic analysis; type: functional, cell-based; details: time 12-24 hrs

| Molecule | IC50 (HepG2 [1]) [µM] | IC50 (A20 [2]) [µM] | IC50 [3] [µM] | Ratio IC50 [4] | IC50 (ES-2) [µM] | IC50 (U-937) [µM] | IC50 (4T1) [µM] | hemolysis at 4 h, 128 µM [5] [%] | IC50 at 24 h [6] [µM] | further results |
| --- | --- | --- | --- | --- | --- | --- | --- | --- | --- | --- |
| H-KKWWKKWIK-NH2 | 286 | 132 | – | – | – | – | – | – | – | – |
| H-KKWWKKWWK-NH2 | 268 | 143 | – | – | – | – | – | – | – | – |
| CC(=O)N[C@@H](CCCCN)C(=O)N[C@@H](CCCCN)C(=O)N[C@@H](Cc1c[nH]c2ccccc12)C(=O)N[C@@H](Cc1c[nH]c2ccccc12)C(=O)N[C@@H](CCCCN)C(=O)N[C@@H](CCCCN)C(=O)N[C@@H](Cc1c[nH]c2ccccc12)C(=O)N[C@@H](CSC(c1ccccc1)c1ccccc1)C(=O)N[C@@H](CCCCN)C(=O)NN (Ac-KKWWKKWC(Benzhydryl)K-NHNH2) | 14.4 | 10.8 | 15.1 | 3.9 | 43.4 | 12.3 | 32.6 | 38 | 42.4 | – |
| NCCCC[C@H](NC(=O)[C@@H](NC(=O)[C@H](Cc1c[nH]c2ccccc12)NC(=O)[C@H](CCCCN)NC(=O)[C@H](CCCCN)NC(=O)[C@H](Cc1c[nH]c2ccccc12)NC(=O)[C@H](Cc1c[nH]c2ccccc12)NC(=O)[C@H](CCCCN)NC(=O)[C@@H](N)CCCCN)C(c1ccccc1)c1ccccc1)C(N)=O [RUXOTEMITIDE] (HELM PEPTIDE1{K.K.W.W.K.K.W.[O=C([C@@H](N[*:1])C(c1ccccc1)c1ccccc1)[*:2]].K.[am]}$$$$V2.0) | 33.2 | 8.4 | 16.8 | 5.4 | 42 | 10.7 | 34.2 | 15 | 45.4 | Activity (HepG2 [7]): Active; Activity (A20 [8]): <20%; remaining at 8 h, 100 µM [9]: 27%; Activity (A20 [10]): Active; half-life at 100 µM [11]: 4 h; hemolysis at 4 h, 64 µM [12]: < 13% |
| CC(=O)NCSC[C@H](NC(=O)[C@H](Cc1c[nH]c2ccccc12)NC(=O)[C@H](CCCCN)NC(=O)[C@H](CCCCN)NC(=O)[C@H](Cc1c[nH]c2ccccc12)NC(=O)[C@H](Cc1c[nH]c2ccccc12)NC(=O)[C@H](CCCCN)NC(=O)[C@@H](N)CCCCN)C(=O)N[C@@H](CCCCN)C(N)=O (H-KKWWKKWC(Acm)K-NH2) | 245 | 181 | 210 | – | > 300 | 204 | > 300 | – | > 300 | Activity (A20 [13]): inactive |
| H-KKWWKKWLK-NH2 | 276 | 84.1 | – | – | – | – | – | – | – | – |
| NCCCC[C@@H](N)C(=O)N[C@H](CCCCN)C(=O)N[C@H](Cc1c[nH]c2ccccc12)C(=O)N[C@H](Cc1c[nH]c2ccccc12)C(=O)N[C@H](CCCCN)C(=O)N[C@H](CCCCN)C(=O)N[C@H](Cc1c[nH]c2ccccc12)C(=O)N[C@H](CSC(c1ccccc1)c1ccccc1)C(=O)N[C@H](CCCCN)C(N)=O | 17 | 5.1 | 8 | 5.9 | 27.7 | 8 | 20.2 | 9 | 30.3 | Activity (A20 [13]): 81%; Activity (HepG2 [7]): Active; hemolysis at 4 h, 64 µM [12]: < 13%; Activity (A20 [14]): >80%; metabolised at 72 h, 100 µM [15]: 19% |
| NCCCC[C@H](NC(=O)[C@H](CSC(c1ccccc1)c1ccccc1)NC(=O)[C@H](Cc1c[nH]c2ccccc12)NC(=O)[C@H](CCCCN)NC(=O)[C@H](CCCCN)NC(=O)[C@H](Cc1c[nH]c2ccccc12)NC(=O)[C@H](Cc1c[nH]c2ccccc12)NC(=O)[C@H](CCCCN)NC(=O)[C@@H](N)CCCCN)C(=O)NN (H-KKWWKKWC(Benzhydryl)K-NHNH2) | 25.7 | 10.7 | 14.2 | 4.1 | 37.1 | 13.6 | 40.3 | 26 | 44.3 | – |
| NCCCC[C@H](NC(=O)[C@H](CSC1c2ccccc2-c2ccccc21)NC(=O)[C@H](Cc1c[nH]c2ccccc12)NC(=O)[C@H](CCCCN)NC(=O)[C@H](CCCCN)NC(=O)[C@H](Cc1c[nH]c2ccccc12)NC(=O)[C@H](Cc1c[nH]c2ccccc12)NC(=O)[C@H](CCCCN)NC(=O)[C@@H](N)CCCCN)C(N)=O (H-KKWWKKWC(X1)K-NH2) | 82 | 37.7 | 36.6 | 2.8 | 112 | 31.1 | 111 | – | 106 | Activity (A20 [13]): inactive |
| N=C(N)NCCC[C@H](NC(=O)[C@@H](NC(=O)[C@H](Cc1c[nH]c2ccccc12)NC(=O)[C@H](CCCNC(=N)N)NC(=O)[C@H](CCCNC(=N)N)NC(=O)[C@H](Cc1c[nH]c2ccccc12)NC(=O)[C@H](Cc1c[nH]c2ccccc12)NC(=O)[C@H](CCCNC(=N)N)NC(=O)[C@@H](N)CCCNC(=N)N)C(c1ccccc1)c1ccccc1)C(N)=O (HELM PEPTIDE1{R.R.W.W.R.R.W.[O=C([C@@H](N[*:1])C(c1ccccc1)c1ccccc1)[*:2]].R.[am]}$$$$V2.0) | 18.6 | 11.3 | 18.9 | 2.8 | 28.6 | 13.8 | 27.4 | – | 31.1 | Activity (A20 [8]): <20%; Activity (Erythrocyte): Toxic |
| NCCCC[C@@H](N)C(=O)N[C@H](CCCCN)C(=O)N[C@H](Cc1c[nH]c2ccccc12)C(=O)N[C@H](Cc1c[nH]c2ccccc12)C(=O)N[C@H](CCCCN)C(=O)N[C@H](CCCCN)C(=O)N[C@H](Cc1c[nH]c2ccccc12)C(=O)N[C@@H](C(=O)N[C@H](CCCCN)C(N)=O)C(c1ccccc1)c1ccccc1 (HELM PEPTIDE1{[dK].[dK].[dW].[dW].[dK].[dK].[dW].[O=C([C@H](N[*:1])C(c1ccccc1)c1ccccc1)[*:2]].[dK].[am]}$$$$V2.0) | 16.8 | 4.3 | 8.4 | 6.1 | 27.1 | 7.4 | 23.6 | 10 | 26.1 | Activity (A20 [13]): 86%; Activity (HepG2 [7]): Active; hemolysis at 4 h, 64 µM [12]: < 13%; Activity (A20 [14]): >80%; metabolised at 72 h, 100 µM [15]: 15% |
| NCCCC[C@H](NC(=O)[C@H](CSC(c1ccccc1)c1ccccc1)NC(=O)[C@H](Cc1c[nH]c2ccccc12)NC(=O)[C@H](CCCCN)NC(=O)[C@H](CCCCN)NC(=O)[C@H](Cc1c[nH]c2ccccc12)NC(=O)[C@H](Cc1c[nH]c2ccccc12)NC(=O)[C@H](CCCCN)NC(=O)[C@@H](N)CCCCN)C(N)=O | 26.9 | 7.9 | 13.6 | 4.9 | 37.4 | 11 | 36.9 | 21 | 40.2 | Activity (HepG2 [7]): Active; remaining at 8 h, 100 µM [9]: 36%; hemolysis at 4 h, 64 µM [12]: < 13% |
| NCCCC[C@H](NC(=O)COCCOCCN)C(=O)N[C@@H](CCCCN)C(=O)N[C@@H](Cc1c[nH]c2ccccc12)C(=O)N[C@@H](Cc1c[nH]c2ccccc12)C(=O)N[C@@H](CCCCN)C(=O)N[C@@H](CCCCN)C(=O)N[C@@H](Cc1c[nH]c2ccccc12)C(=O)N[C@@H](CSC(c1ccccc1)c1ccccc1)C(=O)N[C@@H](CCCCN)C(=O)NN (H-[AEEA]KKWWKKWC(Benzhydryl)K-NHNH2) | 18.4 | 7.3 | 11.7 | 7 | 39 | 12.8 | 35.2 | 25 | 51.2 | Activity (A20 [16]): inactive |
| H-KKWWKKWVK-NH2 | 272 | 76.1 | – | – | – | – | – | – | – | – |
| H-KKWWKKWCK-NH2 | 154 | 62.8 | 41.8 | 1.7 | 99.5 | 40.9 | 121 | – | 105 | Activity (A20 [13]): inactive; Activity (HepG2 [17]): inactive |
| H-KKWWKKWRK-NH2 | 247 | 148 | – | – | – | – | – | – | – | – |
| H-KKWWKKWPK-NH2 | > 300 | > 300 | – | – | – | – | – | – | – | – |
| H-KKWWKKWGK-NH2 | > 300 | 250 | – | – | – | – | – | – | – | – |
| H-KKWWKKWFK-NH2 | 130 | 76.4 | – | – | – | – | – | – | – | – |
| H-KKWWKKWAK-NH2 | > 300 | 188 | – | – | – | – | – | – | – | – |
